Results: ChEMBL document CHEMBL5126636, “Antibacterial Gilvocarcin-Type Aryl-C-Glycosides from a Soil-Derived Streptomyces Species” (2022)
Converted amounts (≈) assume the structure as drawn.

How the values were obtained:
Assay type in all cases: functional
[1] = test system: Nakaseomyces glabratus; experiment: Antibacterial activity against Candida Candida glabrata ATCC 2001 by broth microdilution method
[2] = test system: Pseudomonas aeruginosa; experiment: Antibacterial activity against Pseudomonas aeruginosa ATCC 10145 by broth microdilution method
[3] = test system: Escherichia coli; experiment: Antibacterial activity against Escherichia coli ATCC 11775 by broth microdilution method
[4] = test system: Staphylococcus aureus; experiment: Antibacterial activity against Staphylococcus aureus ATCC 6538 by broth microdilution method
[5] = test system: Candida albicans; experiment: Antibacterial activity against Candida albicans ATCC 10231 by broth microdilution method
[6] = test system: Staphylococcus aureus; experiment: Antibacterial activity against methicillin resistant Staphylococcus aureus ATCC 43300 by broth microdilution method

Compound | MIC [1] [µg/mL] | MIC [2] [µg/mL] | MIC [3] [µg/mL] | MIC [4] [µg/mL] | MIC [5] [µg/mL] | MIC [6] [µg/mL]
C=Cc1cc(OC)c2c(c1)c(=O)oc1c2cc(OC)c2c(O)ccc([C@H]3O[C@@H]([C@@H](C)O)[C@H](O)[C@H]3O)c21 | > 64 | > 64 | > 64 | 0.5 (≈ 1.01 µM) | > 64 | 0.25 (≈ 0.506 µM)
C=Cc1cc(OC)c2c(c1)c(=O)oc1c2cc(OC)c2c(OC(C)=O)ccc([C@H]3O[C@@H]([C@@H](C)OC(C)=O)[C@H](OC(C)=O)[C@H]3OC(C)=O)c21 | > 64 | > 64 | > 64 | > 64 | > 64 | > 64
CCc1cc(OC)c2c(c1)c(=O)oc1c2cc(OC)c2c(O)ccc([C@H]3O[C@@H]([C@@H](C)O)[C@H](O)[C@H]3O)c21 | > 64 | > 64 | > 64 | > 64 | > 64 | > 64
COc1cc2c(oc(=O)c3cc(C(O)CCl)cc(OC)c32)c2c([C@H]3O[C@@H]([C@@H](C)O)[C@H](O)[C@H]3O)ccc(O)c12 (stereo partly drawn) | > 64 | > 64 | > 64 | > 64 | > 64 | > 64
COc1cc2c(oc(=O)c3cc([C@H]4CC[C@H]4c4cc(OC)c5c(c4)c(=O)oc4c5cc(OC)c5c(O)ccc([C@H]6O[C@@H]([C@@H](C)O)[C@H](O)[C@H]6O)c54)cc(OC)c32)c2c([C@H]3O[C@@H]([C@@H](C)O)[C@H](O)[C@H]3O)ccc(O)c12 | > 64 | > 64 | > 64 | 8 (≈ 8.09 µM) | > 64 | 4 (≈ 4.04 µM)
COc1cc2c(oc(=O)c3cc(C(C)C)cc(OC)c32)c2c([C@H]3O[C@@H]([C@@H](C)O)[C@H](O)[C@H]3O)ccc(O)c12 | > 64 | > 64 | > 64 | > 64 | > 64 | 16 (≈ 31.3 µM)
COc1cc2c(oc(=O)c3cc(C)cc(OC)c32)c2c([C@H]3O[C@@H]([C@@H](C)OC(C)=O)[C@H](OC(C)=O)[C@H]3OC(C)=O)ccc(OC(C)=O)c12 | > 64 | > 64 | > 64 | > 64 | > 64 | > 64
COc1cc2c(oc(=O)c3cc(CO)cc(OC)c32)c2c([C@H]3O[C@@H]([C@@H](C)O)[C@H](O)[C@H]3O)ccc(O)c12 | > 64 | > 64 | > 64 | > 64 | > 64 | > 64
C=Cc1cc(OC)c2c(c1)c(=O)oc1c2cc(OC)c2c(O)ccc([C@@H]3O[C@@H]([C@@H](C)O)[C@H](O)[C@H]3O)c21 | > 64 | > 64 | > 64 | 64 (≈ 129 µM) | > 64 | 16 (≈ 32.4 µM)
COc1cc2c(oc(=O)c3cc([C@H](C)OC(C)=O)cc(OC)c32)c2c([C@H]3O[C@@H]([C@@H](C)OC(C)=O)[C@H](OC(C)=O)[C@H]3OC(C)=O)ccc(OC(C)=O)c12 | > 64 | > 64 | > 64 | > 64 | > 64 | > 64
COc1cc2c(oc(=O)c3cc(C(O)CO)cc(OC)c32)c2c([C@H]3O[C@@H]([C@@H](C)O)[C@H](O)[C@H]3O)ccc(O)c12 (stereo partly drawn) | > 64 | > 64 | > 64 | > 64 | > 64 | > 64
COc1cc2c(oc(=O)c3cc([C@H](C)O)cc(OC)c32)c2c([C@H]3O[C@@H]([C@@H](C)O)[C@H](O)[C@H]3O)ccc(O)c12 | > 64 | > 64 | > 64 | > 64 | > 64 | > 64
COc1cc2c(oc(=O)c3cc(CCO)cc(OC)c32)c2c([C@H]3O[C@@H]([C@@H](C)O)[C@H](O)[C@H]3O)ccc(O)c12 | > 64 | > 64 | > 64 | 32 (≈ 62.4 µM) | > 64 | 64 (≈ 125 µM)
C=Cc1cc(OC)c2c(c1)c(=O)oc1c3cccc(O)c3c(OC)cc12 | > 64 | > 64 | > 64 | > 64 | > 64 | > 64
COc1cc2c(oc(=O)c3cc(C)cc(OC)c32)c2c([C@H]3O[C@@H]([C@@H](C)O)[C@H](O)[C@H]3O)ccc(O)c12 | > 64 | > 64 | > 64 | 1 (≈ 2.07 µM) | > 64 | 2 (≈ 4.15 µM)
C=Cc1cc(OC)c2c(c1)c(=O)oc1c2cc(OC)c2c(O)ccc([C@@H]3O[C@@H]([C@H](O)CO)[C@H](O)[C@H]3O)c21 | > 64 | > 64 | > 64 | 16 (≈ 31.3 µM) | > 64 | 8 (≈ 15.7 µM)
O=C(O)c1cn(C2CC2)c2cc(N3CCNCC3)c(F)cc2c1=O [CIPROFLOXACIN] | – | – | – | 0.25 (≈ 0.754 µM) | – | 0.5 (≈ 1.51 µM)
